Read-outs that look alike come from different tables or passages of the source.
System: cytokine secretion from LPS-stimulated human monocytes
Test: Human monocyte cytokine secretion assay (LPS-stimulated)
Type: cell-based
[1] = 10 μM of test compound, 1 ng/mL LPS, 4 hours, read-out: IL-1β % (Percent inhibition values for inhibition of cytokine secretion)
[2] = 10 μM of test compound, 1 ng/mL LPS, 4 hours, read-out: TNF-α % (Percent inhibition values for inhibition of cytokine secretion)
[3] = read-out: IL-6 % (Percent inhibition values for inhibition of cytokine secretion), 10 μM of test compound, 1 ng/mL LPS, 4 hours

Experimental: Peripheral blood from healthy human volunteers was collected and the monocytes isolated via Ficoll-paque density centrifugation. […] The cells were allowed to pre-incubate with test compound at the indicated concentration for 30 minutes (37° C., 5% CO2, humidified air); after which the supernatant was removed and media containing compound and 1 ng/mL LPS was added. Cells were allowed to incubate with compounds and LPS for 4 hours at 37° C. after which the supernatant was removed and stored at −80° C. Cytokine concentrations in the supernatant were determined using commercially available Bio-Rad Bio-Plex™ kits according the manufacturer's instructions.

Structure (SMILES): Fc1ccc(CN2CCC[C@H](Nc3ccc4[nH]ncc4c3)C2)cc1F [Compound 1.072, (S)-N-(1-(3,4-difluorobenzyl)piperidin-3-yl)-1H-indazol-5-amine]
- activity at 10 µM [1]: 98.2%
- activity at 10 µM [2]: 83.8%
- activity at 10 µM [3]: 96.1%

Structure (SMILES): CSc1ccc(CN2CCC[C@@H](Nc3ccc4[nH]ncc4c3)C2)cc1 [Compound 1.074, (R)-N-(1-(4-(methylthio)benzyl)piperidin-3-yl)-1H-indazol-5-amine]
- activity at 10 µM [3]: 96%

Structure (SMILES): Cc1ccc(CN2CCC[C@H](Nc3ccc4[nH]ncc4c3)C2)cc1 [Compound 1.078, (S)-N-(1-(4-methylbenzyl)piperidin-3-yl)-1H-indazol-5-amine]
- activity at 10 µM [1]: 60.4%
- activity at 10 µM [2]: 88.1%
- activity at 10 µM [3]: 111%

Structure (SMILES): c1ccc(CN2CCC[C@@H](Nc3ccc4[nH]ncc4c3)C2)cc1 [Compound 1.110, (R)-N-(1-benzylpiperidin-3-yl)-1H-indazol-5-amine]
- activity at 10 µM [1]: 134%
- activity at 10 µM [2]: 119%
- activity at 10 µM [3]: 112%

Structure (SMILES): O=C(COc1cccc(CN2CCC[C@@H](Nc3ccc4[nH]ncc4c3)C2)c1)N1CCOCC1 [Compound 1.127, (R)-2-(3-((3-(1H-indazol-5-ylamino)piperidin-1-yl)methyl)phenoxy)-l-morpholinoethanone]
- activity at 10 µM [1]: 198%
- activity at 10 µM [2]: 97.3%
- activity at 10 µM [3]: 67.3%

Structure (SMILES): Brc1ccc(CN2CCC[C@H](Nc3ccc4[nH]ncc4c3)C2)cc1 [Compound 1.142, (S)-N-(1-(4-bromobenzyl)piperidin-3-yl)-1H-indazol-5-amine]
- activity at 10 µM [1]: 82.8%

Structure (SMILES): c1cc2cc(CN3CCC[C@@H](Nc4ccc5[nH]ncc5c4)C3)ccc2[nH]1 [Compound 1.143, (R)-N-(1-((1H-indol-5-yl)methyl)piperidin-3-yl)-1H-indazol-5-amine]
- activity at 10 µM [1]: 76.8%

Structure (SMILES): Oc1cccc(CN2CCC[C@@H](Nc3ccc4[nH]ncc4c3)C2)c1 [Compound 1.145, (R)-3-((3-(1H-indazol-5-ylamino)piperidin-1-yl)methyl)phenol]
- activity at 10 µM [1]: 129%

Structure (SMILES): Fc1ccc(CN2CCC[C@@H](Nc3ccc4[nH]ncc4c3)C2)cc1 [Compound 1.146, (R)-N-(1-(4-fluorobenzyl)piperidin-3-yl)-1H-indazol-5-amine]
- activity at 10 µM [2]: 97.7%
- activity at 10 µM [3]: 128%

Structure (SMILES): Cc1ccc(CN2CCC[C@H](Nc3ccc4[nH]ncc4c3)C2)cc1O [Compound 1.151, (S)-5-((3-(1H-indazol-5-ylamino)piperidin-1-yl)methyl)-2-methylphenol]
- activity at 10 µM [3]: 114%

Structure (SMILES): Clc1cccc(CN2CCC[C@H](Nc3ccc4[nH]ncc4c3)C2)c1 [Compound 1.170, (S)-N-(1-(3-chlorobenzyl)piperidin-3-yl)-1H-indazol-5-amine]
- activity at 10 µM [1]: 80.6%
- activity at 10 µM [2]: 67.8%
- activity at 10 µM [3]: 72.7%

Structure (SMILES): C=Cc1ccc(CN2CCC[C@@H](Nc3ccc4[nH]ncc4c3)C2)cc1 [Compound 1.208, (R)-N-(1-(4-vinylbenzyl)piperidin-3-yl)-1H-indazol-5-amine]
- activity at 10 µM [1]: 62%
- activity at 10 µM [2]: 92%
- activity at 10 µM [3]: 109%

Structure (SMILES): COc1ccc(CN2CCC[C@@H](Nc3ccc4[nH]ncc4c3)C2)cc1 [Compound 1.226, (R)-N-(1-(4-methoxybenzyl)piperidin-3-yl)-1H-indazol-5-amine]
- activity at 10 µM [1]: 99.3%
- activity at 10 µM [2]: 66.6%

Structure (SMILES): c1ccc(CN2CCC[C@H](Nc3ccc4[nH]ncc4c3)C2)cc1 [Compound 1.227, (S)-N-(1-benzylpiperidin-3-yl)-1H-indazol-5-amine]
- activity at 10 µM [1]: 69.4%
- activity at 10 µM [2]: 79.3%
- activity at 10 µM [3]: 66.7%

Structure (SMILES): C=Cc1ccc(CN2CCC[C@H](Nc3ccc4[nH]ncc4c3)C2)cc1 [Compound 1.229, (S)-N-(1-(4-vinylbenzyl)piperidin-3-yl)-1H-indazol-5-amine]
- activity at 10 µM [1]: 44.9%
- activity at 10 µM [2]: 50.7%
- activity at 10 µM [3]: 63.2%
